These are literature values, as cited in US20230301919A1, “FREEZE DRIED LOW HYGROSCOPICITY ACTIVE POWDER COMPOSITIONS” (PHILIP MORRIS PRODUCTS S.A., priority 2020, published 2023).

For the series the following is noted: at 25° C.

SMILES strings stand for the structures.

For `OC[C@H]1O[C@H](O[C@H]2O[C@H](CO)[C@@H](O)[C@H](O)[C@H]2O)[C@H](O)[C@@H](O)[C@@H]1O` [trehalose], the solubility was 69 g/100 ml water.
